“And” between values parts separate entries of the source, which are not always exact repeats. Equal entries are not always repeated.
Experiments:
[1] = system: spontaneously hypertensive rats (SHR); assay: Antihypertensive effect (MABP by radiotelemetry) of CI-1027, quinapril and their combination in SHR (Example 1); type: in vivo, rat
Experimental: The antihypertensive effects of the carboxyalkylether compound of Formula III (CI-1027), alone and in combination with an antihypertensive agent such as quinapril (CI-906), were evaluated in rats according to the following protocol. Male spontaneously hypertensive rats (SHR, 15-20 weeks old, Charles River Laboratories, Wilmington, Mass.) were prepared with indwelling aortic catheters and radiotransmitters (Data Sciences International, Saint Paul, Minn.). The radiotransmitters provided continuous measurement of aortic blood pressure waveform. From the aortic blood pressure waveform a Ponemah (Gould Instruments Inc, Valley View, Ohio) computer provided mean arterial blood pressure (MABP) and heart rate values continuously as one-minute averages. One-minute data was then summarized at 15-minute intervals using Excel (Microsoft Corporation, Redmond, Wash.) spreadsheets. Animals were allowed food and water ad libitum. To allow for recovery following surgery, rats were not dosed for a minimum of 7 days. Day 0 predose blood pressures were obtained by averaging eight 15-minute MABP measurements made 2 hours before dosing. To obtain the peak response to treatment (Days 0, 12, 16, 19, and 22), the 15-minute MABP measurements in the interval between 2 and 4 hours post-dose were averaged. Test compounds were given in a vehicle that contained 96% water, 3% carbomethocellulose (Sigma Chemical, Saint Louis, Mo.) and 1% tween […] (polyoxyethylenesorbitan monooleate, Sigma Chemical). CI-1027 and quinapril monotherapy were administered at 8:30 AM daily by oral gavage in a volume of 2 mL/kg. The combination of CI-1027 and quinapril was given as a single gavage in a volume of 2 mL/kg. The experiment was carried out over 22 days in 4 groups of animals. Group I served as a control and received 2 mL/kg/day of vehicle for 22 consecutive days. Group II, used to determine the antihypertensive response to quinapril monotherapy, was given vehicle for the first 12 to 13 consecutive days. Then on Day 13 to 14 quinapril was added at a dose of 0.3 mg/kg/day for 3 to 4 consecutive days; the dose was then increased to 1 mg/kg/day for the next 3 days, and on the final 3 days, 3 mg/kg/day was administered. To determine the response to CI-1027 monotherapy, Groups III and IV received 12-day treatment with CI-1027 monotherapy at doses of 30 and 100 mg/kg/day, respectively. To determine the antihypertensive response to the combination therapy quinapril, was added to the ongoing CI-1027 treatment (Day 13-14) using the rising dose protocol described for Group II (quinapril monotherapy). [table]

SHR = assay: Antihypertensive effect (MABP by radiotelemetry) of CI-1027, amlodipine and their combination in SHR (Example 2); type: in vivo, rat
Experimental: The general procedure of Example 1 was followed to evaluate the antihypertensive efficacy of the carboxyalkylether CI-1027 alone and in combination with the calcium channel blocker amlodipine.
Male SHR (15-20 weeks old, Charles River Laboratories) were prepared with indwelling aortic catheters and radiotransmitters for continuous measurement of arterial blood pressure and heart rate. Animals were allowed food and water ad libitum. Before dosing all rats were given a minimum of 7 days for recovery from surgery.
The experiment was carried out over 22 days in 3 groups of SHR. Group I served as a control and received 2 mL/kg/day of vehicle (same as in Example 1) for 22 consecutive days. Group II, used to determined the antihypertensive response to amlodipine monotherapy, was given vehicle for the first 13 consecutive days. Then on Day 14, amlodipine was added at a dose of 0.3 mg/kg/day for 3 consecutive days. The dose was then increased to 1 mg/kg/day for the next 3 days, and on the final 3 days, 3 mg/kg/day was given. To determine the response to CI-1027 monotherapy, Group III received a 13-day treatment with CI-1027 monotherapy at a dose of 30 mg/kg/day. The antihypertensive response to the combination therapy was determined by the addition of amlodipine to ongoing CI-1027 treatment on Day 14.
Drugs were suspended or dissolved in vehicle that contains 96% water, 3% carboxymethocellulose, and 1% tween 88. Compounds were given at 9 AM daily by oral gavage in a volume of 2 mL/kg. The combination of CI-1027 and amlodipine was given as a single gavage in a volume of 2 mL/kg.

## CCOC(=O)[C@H](CCc1ccccc1)N[C@@H](C)C(=O)N1Cc2ccccc2C[C@H]1C(=O)O [Quinapril, quinapril]
[1]; Quinapril 0.3 mg/kg/day oral, Day 16, 2-4 h postdose
  Peak MABP: 122 ± 5 mm Hg
[1]; Quinapril 1 mg/kg/day oral, Day 19, 2-4 h postdose
  Peak MABP: 121 ± 4 mm Hg
[1]; Quinapril 3 mg/kg/day oral, Day 22, 2-4 h postdose
  Peak MABP: 117 mm Hg and 117 ± 4 mm Hg
[1]; Quinapril monotherapy, rising dose
  Antihypertensive response at 3 mg/kg/day greater than at 0.3 mg/kg/day: 5 mm Hg

## CCOC(=O)C1=C(COCCN)NC(C)=C(C(=O)OC)C1c1ccccc1Cl (stereo not drawn) [Amlodipine, amlodipine]
SHR; Amlodipine 0.3 mg/kg/day oral, Day 16, 4-6 h postdose
  Peak MABP: 140 ± 6 mm Hg
SHR; Amlodipine 1 mg/kg/day oral, Day 19, 4-6 h postdose
  Peak MABP: 131 ± 5 mm Hg
SHR; Amlodipine 3 mg/kg/day oral, Day 22, 4-6 h postdose
  Peak MABP: 114 mm Hg and 114 ± 5 mm Hg
SHR; amlodipine monotherapy (Group II), oral
  Threshold antihypertensive dose: 1 mg/kg/day

## CC(C)(CCCCOCCCCC(C)(C)C(=O)O)C(=O)O [CI-1027]
SHR; CI-1027 30 mg/kg/day oral, Day 0, 4-6 h postdose
  Peak MABP: 129 ± 4 mm Hg
SHR; CI-1027 30 mg/kg/day oral, Day 13, 4-6 h postdose, 30 mg/kg/day
  Peak MABP: 120 mm Hg and 120 ± 8 mm Hg
SHR; CI-1027 monotherapy 30 mg/kg/day, 13 days
  Effect of monotherapy on blood pressure: lowers blood pressure in the SHR
[1]; CI-1027 30 mg/kg/day oral, Day 0, 2-4 h postdose
  Peak MABP: 145 ± 4 mm Hg
[1]; CI-1027 30 mg/kg/day oral, Day 12, 2-4 h postdose, 30 mg/kg/day
  Peak MABP: 131 mm Hg and 131 ± 3 mm Hg
[1]; CI-1027 100 mg/kg/day oral, Day 0, 2-4 h postdose
  Peak MABP: 141 ± 4 mm Hg
[1]; CI-1027 monotherapy 30 and 100 mg/kg/day, 12 days
  Antihypertensive activity of monotherapy: modest antihypertensive activity

— patent US20030225123A1, “Antihypertensive agents and use” (priority 2003, published 2003)
